Tested on: vasopressor response of angiotensin II
Experiment: AII Challenge: antagonism of angiotensin II vasopressor response;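 on Response Average Change: post-dose Angiotensin II-evoked rise in systolic blood pressure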
Type: in vivo
Conditions: for inhibition in vivo at 3 mg/kg / inhibition in vivo at 5 mg/kg: Rattus norvegicus; for inhibition in vivo at 3 mg/kg: iv; for inhibition in vivo at 5 mg/kg: po
From the text: Conscious Male Okamoto-Aoki SHR, 16-20 weeks old, weighing approximately 330 g are purchased from Charles River Labs (Wilmington, Mass.). Conscious rats are restrained in a supine position with elastic tape. The area at the base of the tail is locally anesthetized by subcutaneous infiltration with 2% procaine. The ventral caudal artery and vein are isolated, and a cannula made of polyethylene (PE) 10-20 tubing (fused together by heat) is passed into the lower abdominal aorta and vena cava, respectively. The cannula is secured, heparinized (1,000 I.U./ml), sealed and the wound is closed. The animals are placed in plastic restraining cages in an upright position. The cannula is attached to a Statham P23 Db pressure transducer, and pulsatile blood pressure is recorded to 10-15 minutes with a Gould Brush recorder. (Chan et al., (Drug Development Res., 18:75-94, 1989). Angiotensin II (human sequence, Sigma Chem. Co., St. Louis, Mo.) of 0.05 and 0.1 ug/kg i.v. is injected into all rats (predosing response). Then a test compound, vehicle or a known angiotensin II antagonist is administered i.v., i.p. or orally to each set of rats. The two doses of angiotensin II are given to each rat again at 30, 60, 90, 120, 180, 240 and 300 minutes post dosing the compound or vehicle. The vasopressor response of angiotensin II is measured for the increase in systolic blood pressure in mmHg. The percentage of antagonism or blockade of the vasopressor response of angiotensin II by a compound is calculated using the vasopressor response (increase in systolic blood pressure) of angiotensin II of each rat predosing the compound as 100%.

[1] = 3 mg/kg I.V., AII 0.05 mcg/kg IV, 30 min post dose
[2] = 3 mg/kg I.V., AII 0.05 mcg/kg IV, 60 min post dose
[3] = 3 mg/kg I.V., AII 0.05 mcg/kg IV, 90 min post dose
[4] = 3 mg/kg I.V., AII 0.05 mcg/kg IV, 120 min post dose
[5] = 3 mg/kg I.V., AII 0.05 mcg/kg IV, 180 min post dose
[6] = 3 mg/kg I.V., AII 0.05 mcg/kg IV, 240 min post dose
[7] = 3 mg/kg I.V., AII 0.1 mcg/kg IV, 30 min post dose
[8] = 3 mg/kg I.V., AII 0.1 mcg/kg IV, 60 min post dose
[9] = 3 mg/kg I.V., AII 0.1 mcg/kg IV, 90 min post dose
[10] = 3 mg/kg I.V., AII 0.1 mcg/kg IV, 120 min post dose
[11] = 3 mg/kg I.V., AII 0.1 mcg/kg IV, 180 min post dose
[12] = 3 mg/kg I.V., AII 0.1 mcg/kg IV, 240 min post dose
[13] = 0.5 h, 3 mg/kg I.V., AII 0.05 mcg/kg IV, 30 min post dose
[14] = 0.5 h, 3 mg/kg I.V., AII 0.1 mcg/kg IV, 30 min post dose
[15] = 1 h, 3 mg/kg I.V., AII 0.05 mcg/kg IV, 60 min post dose
[16] = 1 h, 3 mg/kg I.V., AII 0.1 mcg/kg IV, 60 min post dose
[17] = 2 h, 3 mg/kg I.V., AII 0.05 mcg/kg IV, 120 min post dose
[18] = 2 h, 3 mg/kg I.V., AII 0.1 mcg/kg IV, 120 min post dose
[19] = 3 h, 3 mg/kg I.V., AII 0.05 mcg/kg IV, 180 min post dose
[20] = 3 h, 3 mg/kg I.V., AII 0.1 mcg/kg IV, 180 min post dose
[21] = 4 h, 3 mg/kg I.V., AII 0.05 mcg/kg IV, 240 min post dose
[22] = 4 h, 3 mg/kg I.V., AII 0.1 mcg/kg IV, 240 min post dose
[23] = […], 3 mg/kg I.V., AII 0.05 mcg/kg IV, 90 min post dose
[24] = […], 3 mg/kg I.V., AII 0.1 mcg/kg IV, 90 min post dose

## CCCCc1nc2ccc([C@]3(C)C[C@@H]4CCC(C)(C)N4O3)cc2c(=O)n1Cc1ccc(-c2ccccc2-c2nnn[nH]2)cc1 (relative stereo) [Example 69, Trans-2-Butyl-6-(hexahydro-2,6,6-trimethylpyrrolo[1,2-b]isoxazol-2-yl)-3-[[2'-(1H-tetrazol-5-yl)[1,1'-biphenyl]-4-yl]methyl]-4(3H)-quinazolinone]
[1]
  Response Average Change: 0 mmHg
[2]
  Response Average Change: 2.5 mmHg
[3]
  Response Average Change: 2.5 mmHg
[4]
  Response Average Change: 5 mmHg
[5]
  Response Average Change: 2.5 mmHg
[6]
  Response Average Change: 5 mmHg
3 mg/kg I.V., AII 0.05 mcg/kg IV, 300 min post dose
  Response Average Change: 10 mmHg
[7]
  Response Average Change: 0 mmHg
[8]
  Response Average Change: 0 mmHg
[9]
  Response Average Change: 25 mmHg
[10]
  Response Average Change: 2.5 mmHg
[11]
  Response Average Change: 0 mmHg
[12]
  Response Average Change: 7.5 mmHg
3 mg/kg I.V., AII 0.1 mcg/kg IV, 300 min post dose
  Response Average Change: 12.5 mmHg
[13]
  inhibition in vivo at 3 mg/kg: 100%
[14]
  inhibition in vivo at 3 mg/kg: 100%
[15]
  inhibition in vivo at 3 mg/kg: 92%
[16]
  inhibition in vivo at 3 mg/kg: 100%
[17]
  inhibition in vivo at 3 mg/kg: 83%
[18]
  inhibition in vivo at 3 mg/kg: 94%
[19]
  inhibition in vivo at 3 mg/kg: 92%
[20]
  inhibition in vivo at 3 mg/kg: 100%
[21]
  inhibition in vivo at 3 mg/kg: 83%
[22]
  inhibition in vivo at 3 mg/kg: 81%
5 h, 3 mg/kg I.V., AII 0.05 mcg/kg IV, 300 min post dose
  inhibition in vivo at 3 mg/kg: 67%
5 h, 3 mg/kg I.V., AII 0.1 mcg/kg IV, 300 min post dose
  inhibition in vivo at 3 mg/kg: 69%
[23]
  inhibition in vivo at 3 mg/kg: 92%
[24]
  inhibition in vivo at 3 mg/kg: 94%

## CCCCc1nc2ccc([C@]3(C)C[C@@H]4CCCN4O3)cc2c(=O)n1Cc1ccc(-c2ccccc2-c2nnn[nH]2)cc1 (relative stereo) [Example 59, Trans-2-Butyl-6-(hexahydro-2-methylpyrrolo[1,2-b]isoxazol-2-yl)-3-[[2'-(1H-tetrazol-5-yl)[1,1'-biphenyl]-4-yl]methyl]-4(3H)-quinazolinone]
[1]
  Response Average Change: 17.5 mmHg
[2]
  Response Average Change: 9 mmHg
[3]
  Response Average Change: 18.5 mmHg
[4]
  Response Average Change: 9.5 mmHg
[5]
  Response Average Change: 20 mmHg
[6]
  Response Average Change: 18.5 mmHg
[7]
  Response Average Change: 21 mmHg
[8]
  Response Average Change: 23.5 mmHg
[9]
  Response Average Change: 17.5 mmHg
[10]
  Response Average Change: 12.5 mmHg
[11]
  Response Average Change: 22.5 mmHg
[12]
  Response Average Change: 27.5 mmHg
5 mg/kg P.O., AII 0.05 mcg/kg IV, 30 min post dose
  Response Average Change: 19 mmHg
5 mg/kg P.O., AII 0.05 mcg/kg IV, 60 min post dose
  Response Average Change: 12.5 mmHg
5 mg/kg P.O., AII 0.05 mcg/kg IV, 90 min post dose
  Response Average Change: 17.5 mmHg
5 mg/kg P.O., AII 0.05 mcg/kg IV, 120 min post dose
  Response Average Change: 24 mmHg
5 mg/kg P.O., AII 0.05 mcg/kg IV, 180 min post dose
  Response Average Change: 18.5 mmHg
5 mg/kg P.O., AII 0.05 mcg/kg IV, 240 min post dose
  Response Average Change: 12.5 mmHg
5 mg/kg P.O., AII 0.05 mcg/kg IV, 300 min post dose
  Response Average Change: 12.5 mmHg
5 mg/kg P.O., AII 0.1 mcg/kg IV, 30 min post dose
  Response Average Change: 22.5 mmHg
5 mg/kg P.O., AII 0.1 mcg/kg IV, 60 min post dose
  Response Average Change: 12.5 mmHg
5 mg/kg P.O., AII 0.1 mcg/kg IV, 90 min post dose
  Response Average Change: 17.5 mmHg
5 mg/kg P.O., AII 0.1 mcg/kg IV, 120 min post dose
  Response Average Change: 17.5 mmHg
5 mg/kg P.O., AII 0.1 mcg/kg IV, 180 min post dose
  Response Average Change: 14 mmHg
5 mg/kg P.O., AII 0.1 mcg/kg IV, 240 min post dose
  Response Average Change: 10 mmHg
5 mg/kg P.O., AII 0.1 mcg/kg IV, 300 min post dose
  Response Average Change: 10 mmHg
[13]
  inhibition in vivo at 3 mg/kg: 49%
[14]
  inhibition in vivo at 3 mg/kg: 49%
[15]
  inhibition in vivo at 3 mg/kg: 74%
[16]
  inhibition in vivo at 3 mg/kg: 43%
[17]
  inhibition in vivo at 3 mg/kg: 72%
[18]
  inhibition in vivo at 3 mg/kg: 70%
[19]
  inhibition in vivo at 3 mg/kg: 41%
[20]
  inhibition in vivo at 3 mg/kg: 45%
[21]
  inhibition in vivo at 3 mg/kg: 46%
[22]
  inhibition in vivo at 3 mg/kg: 33%
[23]
  inhibition in vivo at 3 mg/kg: 46%
[24]
  inhibition in vivo at 3 mg/kg: 57%
0.5 h, 5 mg/kg P.O., AII 0.05 mcg/kg IV, 30 min post dose
  inhibition in vivo at 5 mg/kg: 49%
0.5 h, 5 mg/kg P.O., AII 0.1 mcg/kg IV, 30 min post dose
  inhibition in vivo at 5 mg/kg: 49%
1 h, 5 mg/kg P.O., AII 0.05 mcg/kg IV, 60 min post dose
  inhibition in vivo at 5 mg/kg: 67%
1 h, 5 mg/kg P.O., AII 0.1 mcg/kg IV, 60 min post dose
  inhibition in vivo at 5 mg/kg: 72%
2 h, 5 mg/kg P.O., AII 0.05 mcg/kg IV, 120 min post dose
  inhibition in vivo at 5 mg/kg: 36%
2 h, 5 mg/kg P.O., AII 0.1 mcg/kg IV, 120 min post dose
  inhibition in vivo at 5 mg/kg: 60%
3 h, 5 mg/kg P.O., AII 0.05 mcg/kg IV, 180 min post dose
  inhibition in vivo at 5 mg/kg: 51%
3 h, 5 mg/kg P.O., AII 0.1 mcg/kg IV, 180 min post dose
  inhibition in vivo at 5 mg/kg: 68%
4 h, 5 mg/kg P.O., AII 0.05 mcg/kg IV, 240 min post dose
  inhibition in vivo at 5 mg/kg: 67%
4 h, 5 mg/kg P.O., AII 0.1 mcg/kg IV, 240 min post dose
  inhibition in vivo at 5 mg/kg: 77%
5 h, 5 mg/kg P.O., AII 0.05 mcg/kg IV, 300 min post dose
  inhibition in vivo at 5 mg/kg: 67%
5 h, 5 mg/kg P.O., AII 0.1 mcg/kg IV, 300 min post dose
  inhibition in vivo at 5 mg/kg: 77%
[…], 5 mg/kg P.O., AII 0.05 mcg/kg IV, 90 min post dose
  inhibition in vivo at 5 mg/kg: 53%
[…], 5 mg/kg P.O., AII 0.1 mcg/kg IV, 90 min post dose
  inhibition in vivo at 5 mg/kg: 60%

— US5358951A, “Angiotensin II receptor blocking 2, 3, 6 substituted quinazolinones” (American Cyanamid Company, priority 1993, dated 1994)
